Assay results as given in patent publication US8853173B2, “Synthetic glycolipid and use thereof” (RIKEN, priority 2010, dated 2014).

How the values were obtained:
[1] = test system: NKT cells; conditions: cited from earlier work
[2] = test system: NKT cells; conditions: cited from earlier work; remark: listed apart in the source
[3] = test system: NKT cells; conditions: cited from earlier work; remark: listed apart in the source
[4] = test system: NKT cells; conditions: cited from earlier work; remark: listed apart in the source
[5] = test system: NKT cells; conditions: cited from earlier work; remark: listed apart in the source
[6] = test system: NKT cells; test: Influence of synthetic glycolipid on cytokine production of NKT cells: IFN-γ in mouse plasma after tail vein administration; type: in vivo, C57BL/6 mice; conditions: 100 μg/kg body weight, Cytometric Bead Array, data in FIG. 1-3
Protocol: A solution of each of α-GalCer (KRN7000), compound F and compound H in dimethyl sulfoxide (DMSO) was prepared at a concentration of 1 mg/mL. The above-mentioned DMSO solution was diluted with saline (manufactured by Otsuka Pharmaceutical Co., Ltd.) containing 0.5% tween 20 (Bio-Rad) such that the dose became 100 μg/kg body weight when 200 μL per mouse was administered from the tail vein.
The prepared solutions (200 μL) of compounds F and H were respectively injected to C57BL/6 mice (5 mice per group) from the tail vein. As a control substance, α-GalCer (KRN7000) was used, and a solution (200 μL) of α-GalCer (KRN7000) prepared in the same manner such that the dose became 100 μg/kg body weight was injected into the tail vein. The group administered with saline (200 μL) containing 0.5% tween 20 (medium) was used as a negative control. The blood (80 μL) immediately before administration and after administration (after lapse of the time indicated in FIGS. 1-3) was collected from the orbital sinus and plasma was prepared.
The IFN-γ content of the plasma before administration and after administration (after lapse of the time indicated in FIG. 1) was measured by Cytometric Bead Array system (BD Biosciences) which is one of the ELISA methods. The measurement results (mean) of the production amount of IFN-γ and the standard deviation thereof (STDEV) are shown in FIG. 1.

[7] = test system: NKT cells of mouse; conditions: cited from earlier work
[8] = test system: human NKT cells; conditions: cited from earlier work

In the case of `CCCCCCCCCCCCCCCCCCCCCCCCCC(=O)N[C@@H](COC1OC(CO)C(O)C(O)C1O)[C@H](O)[C@H](O)CCCCCCCCCCCCCC` (some centres unmarked) [KRN7000], the “immunostimulatory activity among synthesized analogs” value [1] is listed as “shows the strongest activity”.

In the case of `CCCCCCCCCCCCCCCCCCCCCCCCCC(=O)N[C@@H](COC1CC(CO)C(O)C(O)C1O)[C@H](O)[C@H](O)CCCCCCCCCCCCCC` (some centres unmarked) [RCAI-56], the “NKT cell activation / IFN-γ production” value [2] is listed as “strongly activates NKT cells and induces production of a large amount of IFN-γ”, the “activity in the system of mouse” value [3] is listed as “strong activity” and the “activity in the system of human (in vitro)” value [4] is listed as “strong activity”.

For `CCCCCCCCCCCCCCCCCCCCCCCCCC(=O)N[C@@H](COC1OC(COC)C(O)C(O)C1O)[C@H](O)[C@H](O)CCCCCCCCCCCCCC` (some centres unmarked) [RCAI-61], the “NKT cell activation / IFN-γ production” value [2] is listed as “induces production of IFN-γ in large amounts”, the “activity in the system of mouse” value [3] is listed as “strong activity” and the “activity in the system of human (in vitro)” value [4] is listed as “strong activity”.

In the case of `CCCCCCCCCCCCCCCCS(=O)(=O)N[C@@H](COC1OC(CO)C(O)C(O)C1O)[C@H](O)[C@H](O)CCCCCCCCCCCCCC` (some centres unmarked) [compound 5], the “type of cytokine production induced” value [5] is listed as “induce production of mostly Th2 type cytokines such as IL-4”.

In the case of `CCCCCCCCCCCCCCCCCCCCCCCCC(F)(F)C(=O)N[C@@H](COC1OC(CO)C(O)C(O)C1O)[C@H](O)[C@H](O)CCCCCCCCCCCCCC` (some centres unmarked) [compound 6], the “type of cytokine production induced” value [5] is given as “induce production of mostly Th2 type cytokines such as IL-4”.

For `CCCCCCCCCCCCCCCCCCCCCCCCc1cn([C@@H](COC2OC(CO)C(O)C(O)C2O)[C@H](O)[C@H](O)CCCCCCCCCCCCCC)nn1` (some centres unmarked) [compound 7], the “type of cytokine production induced” value [5] is given as “induce production of mostly Th2 type cytokines such as IL-4”.

In the case of `CCCCCCCCCCCCCCCCCCCCCCCCNC(=O)N[C@@H](CO[C@H]1O[C@H](CO)[C@H](O)[C@H](O)[C@H]1O)[C@H](O)[C@H](O)CCCCCCCCCCCCCC` [compound F, (2S,3S,4R)-1-(α-D-galactopyranosyloxy)-2-(tetracosylureido)-3,4-octadecanediol], the “IFN-γ production compared with α-GalCer (KRN7000)” value [6] is reported as “selectively induced IFN-γ production in larger amounts than α-GalCer (KRN7000)”.

For `CCCCCCCCCCCCCCCCCCCCCCCCNC(=O)N[C@@H](CO[C@H]1O[C@H](COC)[C@H](O)[C@H](O)[C@H]1O)[C@H](O)[C@H](O)CCCCCCCCCCCCCC` [compound H, (2S,3S,4R)-1-(6-O-methyl-α-D-galactopyranosyloxy)-2-(tetracosylureido)-3,4-octadecanediol], the “IFN-γ production compared with α-GalCer (KRN7000)” value [6] was “selectively induced IFN-γ production in larger amounts than α-GalCer (KRN7000)”.

For `CCCCCCCCCCCCCCCCCCCCCCCCCC(=O)N[C@@H](CCC1OC(CO)C(O)C(O)C1O)[C@H](O)[C@H](O)CCCCCCCCCCCCCC` (stereo partly drawn) [α-C-GalCer], the “activation of mouse NKT cells and IFN-γ production” value [7] is given as “strongly activates NKT cells of mouse and preferentially produces IFN-γ” and the “activity in vitro on human NKT cells” value [8] is given as “hardly shows activity”.
